The values that follow come from patent US8778926B2, “Compounds, pharmaceutical compositions and uses thereof” (Boehringer Ingelheim International GmbH, priority 2011, dated 2014).

For the experiment, the target named is T1, human GPR119 (Homo sapiens, UniProt Q8TDV5).
T1 construct: expression vector for human GPR119 cDNA (Acc. No. NP_848566); expressed in transfected cells
T1 sequence (Q8TDV5 1-335): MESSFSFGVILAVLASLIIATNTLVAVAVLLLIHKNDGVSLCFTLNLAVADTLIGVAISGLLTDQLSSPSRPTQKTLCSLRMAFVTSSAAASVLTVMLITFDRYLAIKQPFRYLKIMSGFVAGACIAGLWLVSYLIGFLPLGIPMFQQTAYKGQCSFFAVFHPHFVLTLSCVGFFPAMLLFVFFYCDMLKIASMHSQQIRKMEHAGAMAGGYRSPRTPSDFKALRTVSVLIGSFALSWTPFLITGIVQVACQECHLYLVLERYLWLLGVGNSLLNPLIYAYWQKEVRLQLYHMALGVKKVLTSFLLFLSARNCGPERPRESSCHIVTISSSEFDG
Nature of the experiment: AlphaScreen cAMP assay, activation of GPR119 in Min-6/hGPR119 cells. The format is cell-based. Conditions: MIN6 cells stably transfected with human GPR119; intracellular cAMP; 45 minutes incubation at room temperature. How it is done:
The compounds of formula I according to the invention modulate the activity of the G-protein-coupled receptor GPR119. The effect of the compounds on the activation of GPR119 and on the stimulation of intracellular cAMP concentration is determined using the AlphaScreen cAMP Assay Kit (Cat. No. #6760625R) made by PerkinElmer.
MIN6 cells [Miyazaki J et al. Endocrinology. 1990 July; 127(1):126-32] are stably transfected with an expression vector for human GPR119 cDNA (Acc. No. NP_848566). Min-6/hGPR119 cells are cultured in DMEM, 10% FBS, 500 μM β-mercaptoethanol, 0.3 mg/mL Geniticin, 2 mM GlutaMAX at 37° C. 5% CO2. For the assay, the cells are seeded in Optiplates (white, 384-well, 160 W— barcoded, TC, sterile with lid, Cat. No. #6007688 (Perkin Elmer); 10000 cells/well; 50 μl). The plates covered with lids are then incubated for 24 hours at 37° C./5% CO2. After the medium is aspirated from the wells completely, 10 μl of the test compound are added, the compounds are diluted using stimulating buffer (140 mM NaCl, 3.6 mM KCl, 0.5 mM NaH2PO4, 0.5 mM MgSO4, 1.5 mM CaCl2, 10 mM Hepes, 5 mM NaHCO3; pH 7.4. 0.5 mM IBMX and 0.1% BSA, the final DMSO concentration is 1%). After 45 minutes incubation at room temperature (approx. 20° C.), the cAMP concentrations are determined using the AlphaScreen cAMP Assay Kit (Cat. No. #6760625R from PerkinElmer).
In general terms: Bead proximity is the source of the signal in Alpha formats.
For orientation: EC50 means the concentration giving half of the maximal effect. Turning to `CC(C)c1noc(N2CCC([C@]3(C)Cc4cc(-c5ccc(S(C)(=O)=O)cc5)ncc4O3)CC2)n1` (single isomer, unassigned) [Example 26], the response was half-maximal at 9 nM (EC50).
As for `CCCc1noc(N2CCC([C@]3(C)Cc4cc(-c5ccc(S(C)(=O)=O)cc5)ncc4O3)CC2)n1` (single isomer, unassigned) [Example 27], a half-maximal effect (EC50) was put at 15 nM.
Compound `CCc1cnc(N2CCC([C@]3(C)Cc4cc(-c5ccc(S(C)(=O)=O)cc5)ncc4O3)CC2)nc1` (single isomer, unassigned) [Example 28] yielded an EC50 of 22 nM. The EC50 values of the last two compounds are within 1.5-fold of each other.
Next, `CC(C)(C)c1noc(N2CCC([C@]3(C)Cc4cc(-c5ccc(S(C)(=O)=O)cc5)ncc4O3)CC2)n1` (single isomer, unassigned) [Example 29]: 51 nM; `CCc1cnc(N2CCC([C@@H]3Cc4cc(C5=CCN(S(C)(=O)=O)CC5)ncc4O3)CC2)nc1` (single isomer, unassigned) [Example 30]: 4 nM.
Turning to `CCc1cnc(N2CCC([C@H]3Cc4cc(C5=CCN(S(C)(=O)=O)CC5)ncc4O3)CC2)nc1` (single isomer, unassigned) [Example 31], the EC50 worked out at 3 nM.
Next, `Cc1cnc(N2CCC([C@@H]3Cc4cc(C5=CCN(S(C)(=O)=O)CC5)ncc4O3)CC2)nc1` (single isomer, unassigned) [Example 32]: 29 nM.
As for `Cc1cnc(N2CCC([C@H]3Cc4cc(C5=CCN(S(C)(=O)=O)CC5)ncc4O3)CC2)nc1` (single isomer, unassigned) [Example 33], the EC50 amounted to 6 nM.
Then `C[C@@]1(C2CCN(c3ncc(C(F)(F)F)cn3)CC2)Cc2cc(C3=CCN(S(C)(=O)=O)CC3)ncc2O1` (single isomer, unassigned) [Example 35], with 3 nM; and `CCc1cnc(N2CCC([C@]3(C)Cc4cc(C5=CCN(S(C)(=O)=O)CC5)ncc4O3)CC2)nc1` (single isomer, unassigned) [Example 36], with 5 nM.
`C[C@@]1(C2CCN(c3ccc(C(F)(F)F)cn3)CC2)Cc2cc(C3=CCN(S(C)(=O)=O)CC3)ncc2O1` (single isomer, unassigned) [Example 37] returned an EC50 of 6 nM.
For the compound `C[C@@]1(C2CCN(c3cnc(C(F)(F)F)cn3)CC2)Cc2cc(C3=CCN(S(C)(=O)=O)CC3)ncc2O1` (single isomer, unassigned) [Example 38], the EC50 stood at 14 nM.
Then `C[C@@]1(C2CCN(c3ncc(C(F)(F)F)cc3F)CC2)Cc2cc(C3=CCN(S(C)(=O)=O)CC3)ncc2O1` (single isomer, unassigned) [Example 40], with 2 nM; and `Cc1cnc(N2CCC([C@]3(C)Cc4cc(C5=CCN(S(C)(=O)=O)CC5)ncc4O3)CC2)nc1` (single isomer, unassigned) [Example 41], with 6 nM; and `CC(C)c1noc(N2CCC([C@]3(C)Cc4cc(C5=CCN(S(C)(=O)=O)CC5)ncc4O3)CC2)n1` (single isomer, unassigned) [Example 42], with 11 nM.
Then `CC(C)c1nc(N2CCC([C@]3(C)Cc4cc(C5=CCN(S(C)(=O)=O)CC5)ncc4O3)CC2)no1` (single isomer, unassigned) [Example 43], with 9 nM; and `CCCc1nc(N2CCC(C3Cc4cc(C5=CCN(S(C)(=O)=O)CC5)ncc4O3)CC2)no1` (single isomer, unassigned) [Example 44], with 6 nM; and `CC(C)c1nc(N2CCC([C@H]3Cc4cc(C5=CCN(S(C)(=O)=O)CC5)ncc4O3)CC2)no1` (single isomer, unassigned) [Example 45], with 13 nM.
The compound `CC(C)c1nc(N2CCC([C@@H]3Cc4cc(C5=CCN(S(C)(=O)=O)CC5)ncc4O3)CC2)no1` (single isomer, unassigned) [Example 46] showed an EC50 of 18 nM.
Then `CCCc1nc(N2CCC([C@]3(C)Cc4cc(C5=CCN(S(C)(=O)=O)CC5)ncc4O3)CC2)no1` (single isomer, unassigned) [Example 47], with 6 nM.
For `CC1(C2CCN(c3nnc(C(F)(F)F)s3)CC2)Cc2cc(C3=CCN(S(C)(=O)=O)CC3)ncc2O1` (single isomer, unassigned) [Example 48, 5-(1-Methanesulfonyl-1,2,3,6-tetrahydro-pyridin-4-yl)-2-methyl-2-[1-(5-trifluoromethyl-[1,3,4]thiadiazol-2-yl)-piperidin-4-yl]-2,3-dihydro-furo[2,3-c]pyridine], the EC50 was determined as 12 nM.
Then `CCCc1nc(N2CCC([C@@H]3Cc4cc(C5=CCN(S(C)(=O)=O)CC5)ncc4O3)CC2)no1` (single isomer, unassigned) [Example 49], with 25 nM; and `CC(C)(C)c1nc(N2CCC([C@H]3Cc4cc(C5=CCN(S(C)(=O)=O)CC5)ncc4O3)CC2)no1` (single isomer, unassigned) [Example 50], with 5 nM.
Then `CC(C)(C)c1nc(N2CCC([C@@H]3Cc4cc(C5=CCN(S(C)(=O)=O)CC5)ncc4O3)CC2)no1` (single isomer, unassigned) [Example 51], with 7 nM; and `CS(=O)(=O)N1CC=C(c2cc3c(cn2)O[C@H](C2CCN(c4ncc(C(F)(F)F)cn4)CC2)C3)CC1` (single isomer, unassigned) [Example 52], with 19 nM; and `Cc1cnc(N2CCC([C@]3(C)Cc4cc(C5=CCN(S(C)(=O)=O)CC5)ncc4O3)CC2)cn1` (single isomer, unassigned) [Example 53], with 20 nM.
`CC(C)c1noc(N2CCC([C@@H]3Cc4cc(C5=CCN(S(C)(=O)=O)CC5)ncc4O3)CC2)n1` (single isomer, unassigned) [Example 55] gave an EC50 of 16 nM.
The compound `CC1(c2nc(N3CCC([C@@H]4Cc5cc(C6=CCN(S(C)(=O)=O)CC6)ncc5O4)CC3)no2)CC1` (single isomer, unassigned) [Example 57] returned an EC50 of 36 nM.
Consider `CS(=O)(=O)N1CC=C(c2cc3c(cn2)O[C@@H](C2CCN(c4ncc(C(F)(F)F)cn4)CC2)C3)CC1` (single isomer, unassigned) [Example 79], for which a half-maximal response (EC50) required 3 nM.
`CS(=O)(=O)N1CC=C(c2cc3c(cn2)O[C@@H](C2CCN(c4cnc(C(F)(F)F)cn4)CC2)C3)CC1` (single isomer, unassigned) [Example 80] had an EC50 of 5 nM.
Next, `CS(=O)(=O)N1CC=C(c2cc3c(cn2)O[C@@H](C2CCN(c4nnc(C(F)(F)F)s4)CC2)C3)CC1` (single isomer, unassigned) [Example 81]: 10 nM; `CS(=O)(=O)N1CC=C(c2cc3c(cn2)O[C@@H](C2CCN(c4ccc(C(F)(F)F)cn4)CC2)C3)CC1` (single isomer, unassigned) [Example 82]: 3 nM.
Compound `CS(=O)(=O)N1CC=C(c2cc3c(cn2)O[C@@H](C2CCN(c4ncc(Cl)cn4)CC2)C3)CC1` (single isomer, unassigned) [Example 83] had an EC50 of 3 nM. In other words, the single-digit nanomolar range.
Next, `CS(=O)(=O)N1CC=C(c2cc3c(cn2)O[C@@H](C2CCN(c4ncc(C(F)(F)F)cc4F)CC2)C3)CC1` (single isomer, unassigned) [Example 84]: 2 nM; `CCc1cnc(N2CCC([C@H]3Cc4cc(-c5ccc(S(C)(=O)=O)cc5)ncc4O3)CC2)nc1` (single isomer, unassigned) [Example 85]: 7 nM.
On to `CS(=O)(=O)N1CC=C(c2cc3c(cn2)O[C@H](C2CCN(c4ncc(Cl)cn4)CC2)C3)CC1` (single isomer, unassigned) [Example 86], for which the EC50 worked out at 12 nM.
Then `CS(=O)(=O)c1ccc(-c2cc3c(cn2)O[C@@H](C2CCN(c4ncc(Cl)cn4)CC2)C3)cc1` (single isomer, unassigned) [Example 87], with 13 nM; and `C[C@]1(C2CCN(c3ncc(Cl)cn3)CC2)Cc2cc(C3=CCN(S(C)(=O)=O)CC3)ncc2O1` (single isomer, unassigned) [Example 88], with 59 nM.
Next, `C[C@@]1(C2CCN(c3ncc(C4CC4)cn3)CC2)Cc2cc(-c3ccc(S(C)(=O)=O)cc3)ncc2O1` (single isomer, unassigned) [Example 89]: 16 nM.
`CS(=O)(=O)c1ccc(-c2cc3c(cn2)O[C@H](C2CCN(c4ncc(Cl)cn4)CC2)C3)cc1` (single isomer, unassigned) [Example 90] displayed an EC50 of 60 nM.
Then `CS(=O)(=O)N1CC=C(c2cc3c(cn2)O[C@@H](C2CCN(c4ncc(C5CC5)cn4)CC2)C3)CC1` (single isomer, unassigned) [Example 91], with 3 nM.
